# Results reported in US20150133493A1, “COUMARIN-BASED COMPOUNDS FOR THE TREATMENT OF ALZHEIMER'S DISEASE AND CANCER” (Sloan-Kettering Institute for Cancer Research, priority 2008, published 2015).
# “Also recorded” adds a separate entry of the source.
# Columns and labels:
# [1] = molecular target: T1, γ-secretase (Homo sapiens, UniProt P49768); experiment: In vitro γ-secretase activity assay, Aβ42 production (ECL); type: biochemical; conditions: in words
# T1 construct: endogenous in cells
# Procedure: FIG. 2. In vitro characterization of coumarin-dimer allosteric GSIs against various γ-secretase cleavage products. […] The IC50 values were calculated from the dose response curves using a non-linear regression analysis in Prism software. […] The three β-amyloid-detection in vitro assays were modified from our previously reported assay (21) using a biotinylated substrate that eliminated the requirement of anti-β-amyloid biotinylated antibody. Ruthenylated antibodies that detected the -40, -42, or -38 cleavage site were incorporated to detect proteolysis indicative of γ-secretase activity. In vitro Notch assay utilized a recombinant transmembrane portion of the Notch peptide and anti-Notch1 SM320 antibody in conjunction with ruthenylated anti-rabbit secondary antibodies. Electrochemiluminescence was quantified on an Analyzer (BioVeris).
# Briefly, recombinant peptide substrate was incubated with γ-secretase (40 μg/ml) in the presence or absence of test compound. […] The reaction was incubated for 2.5 hr at 37° C. and stopped by adding RIPA buffer (150 mM NaCl, 1.0% NP-40, 0.5% sodium deoxycholate, 0.1% SDS, 50 mM Tris HCl, pH 8.0). […] The amount of product was determined using synthetic peptide or recombinant standards.
# Cell membranes and solubilized γ-secretase were prepared as described previously (36). The in vitro and cell γ-secretase assays detecting either Aβ38, Aβ40, or Aβ42 cleavage were performed similar as previously described (21, 36). Cleaved product was detected using ruthenylated antibodies that recognize specific APP cleavage sites (Aβ31-38*, G2-10*, or G2-11* antibody for Aβ38, Aβ40, or Aβ42 respectively). The Km and Vmax in the presence and absence of γ-secretase inhibitors were analyzed by non-linear curve fit using the software SigmaPlot 8.0 with the Michaelis-Menten equation (v=Vm [S]/(Km+[S]; v: initial rate; Vm: maximum velocity; Km: the Michaelis-Menten constant, S: substrate).
# [2] = molecular target: T2, γ-secretase active site (Homo sapiens, UniProt P49768); experiment: Photolabeling of the γ-secretase active site (PS1-NTF) in HeLa membrane with probes L646, GY4, JC8, L505; type: binding; conditions: L458 and Compound E at 2 μM, CS-1 up to 100 μM
# T2 construct: endogenous in cells; host or cells: HeLa membrane
# Procedure: FIG. 4. Kinetic analysis of allosteric GSIs and evaluation of their effect on the γ-secretase active site architecture. (a) Kinetic analysis of CS1 was performed using our modified version of a previously reported in vitro γ-secretase activity assay. The inhibition kinetics were analyzed by using a non-linear curve fit with the Michaelis-Menten equation. Upper right inset: we replotted slopes against the inhibitor concentrations after performing double reciprocal conversion. (b) Schematic representation of the allosteric binding of the di-coumarin compounds to γ-secretase. This binding ultimately causes an alteration at the active site of γ-secretase. Black rectangle represents the coumarin-dimer compound. (c) The binding of L458 to the active site of γ-secretase and its interaction at various subpockets within the enzyme. (d) Chemical structure of the four photoaffinity probes utilized in the characterization of CS-1 effect on active site architecture. Hydroxyethylamine and benzophenone moieties are marked by blue and red, respectively. (e) Evaluation of CS-1 effect on the photolabeling of four probes. […] (f) Evaluation of CS-2 effect on the active site photolabeling by L505 and GY4. (g) Effect of Compound E on active site photolabling. […] Blotting was performed for PS1-NTF. The photolabeling blots are representative and were performed in triplicate.
# We hypothesized that the allosteric binding of the di-coumarin compounds alters the conformation of the active site of γ-secretase and thereby preferentially affects the Aβ42 site cleavage (FIG. 4b). This raised the technical issue of how to probe the contours of the enzymatic active site. Although the structure of γ-secretase has been determined by cryoelectron microscopy (23), the resolution attained is not sufficient to investigate subtle changes within the active site. Consequently, we developed a series of active-site directed inhibitors that incorporate a photoreactive benzophenone entity into varied positions. Using these photoreactive probes, we assessed the effect of the di-coumarin inhibitor binding on the active site of γ-secretase. Since the efficiency of photoinsertion depends on the orientation of the probe and the proximity of residues within the active site, conformational change of the active site can alter the orientation of the probe and contact residues and lead to altered cross-linking efficiencies. Therefore, multiple photoactivatable, active-site directed GSIs will provide a practical approach to evaluate the changes within the active site following allosteric di-coumarin binding.
# L458 contains a hydroxyethylamine transition-state isostere that mimics the tetrahedral intermediate of aspartyl proteases and this moiety hydrogen bonds with the catalytic aspartate residues of γ-secretase (20). According to the nomenclature of Schechter and Berger (24), L458 contains the P2, P1, P1′, P2′ and P3′ residues that putatively bind to the S2, S1, S1′, S2′ and S3′ subsites, respectively, within the active site of γ-secretase (FIG. 4c). We have developed a series of biotinylated, photoactivatable inhibitors based on the core structure of L458 that allow us to probe the sub-pockets of the γ-secretase active site (3, 25-26). These inhibitors all have an individual benzophenone group incorporated into L458 at either the P2, P1, P1′, or P3′ position and are referred to as L646, GY4, JC8 and L505 (FIG. 4d). Each of these inhibitors interacts and labels the S2, S1, S1′, and S3′ subsites, respectively, within the γ-secretase complex (FIG. 4c-d).
# HeLa membrane was incubated with CHAPSO detergent and photoaffinity probe in the presence or absence of excess L458 or CS-1. Labeled presenilin was isolated using streptavidin beads, separated by SDS-PAGE and subsequently western blotted using anti-PS1-NTF antibodies. Again, presenilin is believed to contain the active site of γ-secretase, therefore we examined PS1 photolabeling. […]
compound,measurement,setting,value
C[C@H](NC(=O)Cc1cc(F)cc(F)c1)C(=O)N[C@H]1N=C(c2ccccc2)c2ccccc2N(C)C1=O [Compound E],inhibitory potency and selectivity against γ-secretase cleavage activities in vitro,[1],did not exhibit any significant selectivity
same,effect on JC-8 photolabeling of PS1-NTF (S1′ subsite),[2],completely suppressed; also recorded: nonselectively blocked
same,effect on L646 photolabeling of PS1-NTF (S2 subsite),[2],completely suppressed; also recorded: nonselectively blocked
same,effect on GY-4 photolabeling of PS1-NTF (S1 subsite),[2]; CS-2 at 100 μM,completely suppressed; also recorded: nonselectively blocked
same,effect on L505 photolabeling of PS1-NTF (S3′ subsite),[2]; CS-2 at 100 μM,completely suppressed; also recorded: nonselectively blocked
